The values below are quoted from earlier work in US20260345561A1, “METHODS AND COMPOSITIONS FOR USE IN TREATING AUTOSOMAL RECESSIVE POLYCYSTIC KIDNEY DISEASE (ARPKD)” (The General Hospital Corporation, priority 2022, published 2026).

The conditions of the series: racemic ketorolac 15 or 30 mg; Guo et al. 2015; cited from earlier work.

On to `O=C(c1ccccc1)c1ccc2n1CCC2C(=O)O` (racemic) [racemic ketorolac], for which the R-ketorolac level result was “achieved likely therapeutic ranges of R-ketorolac”.
